How the values were obtained:
Test in all cases: CD
[1] = system: B1 (DNA, aptamer) GAGAGTCAATCGACCTGGGGGAGTATTGCGGAGGAAGGTACGCATTCGCTATA; conditions: 300 mM NaCl, 5 mM MgCl2; 20 mM Tris-HCl; 5 μM DNA, 1 mM ATP, room temperature; peak shift 272 to 277 nm
[2] = system: B-linker (B1/B2 assembly) (DNA, aptamer) GAGAGTCAATCGACCTGGGGGAGTATTGCGGAGGAAGGTACGCATTCGCTATA/GAGAGTCAATCGTATAGCGAATGCGT; conditions: 300 mM NaCl, 5 mM MgCl2; 20 mM Tris-HCl; 5 μM DNA, 1 mM ATP; peak shift 273 to 279 nm; CD alone not conclusive
[3] = system: L1 (random DNA sequence) (DNA, single strand) GAGAGTCAATCGTCTATTCGCATGAGAATTCCATTCACCGTAAG; conditions: 300 mM NaCl, 5 mM MgCl2; 20 mM Tris-HCl; 5 μM DNA, 1 mM ATP; nonspecific peak shift 277 to 280 nm

binding [1]: yes
binding [2]: yes
binding [3]: no
Compound: Nc1ncnc2c1ncn2[C@@H]1O[C@H](COP(=O)(O)OP(=O)(O)OP(=O)(O)O)[C@@H](O)[C@H]1O

Source: article PMC6032235 (2018)
